For 43 compounds, Cytotoxicity and activity results are on record in US5962493A, “2-mercaptobenzimidazole derivatives and antihyperlipemic agent or antiarteriosclerotic agent containing the same” (priority 1997, dated 1999).

Where two headings read alike, the source gives them in different places.

Data set [1] has as its system mouse peritoneal macrophage. To be noted: dose 5 μM, microscopic observation.
In data set [2] the test system is mouse peritoneal macrophage. Nature of the data set: In vitro tests on inhibition of foaming of macrophage with mouse peritoneal macrophage (cholesteryl ester formation). In kind it is cell-based, mouse (female ICR). To be noted: 16 hours at 37° C., read-out: CE (%) (cholesteryl ester-forming rate, ratio to the control). Here is the method: (1) In vitro tests on inhibition of foaming of macrophage with mouse peritoneal macrophage:
The necks of 15-week old female ICR mice (Japan SLC) were cut off. After blood-letting, Hanks buffer solution (Nissui Seiyaku Co., Ltd.) was injected into the abdominal cavity of each mouse. The abdomen was massaged and then the buffer solution was rapidly recovered, centrifuged at 1000 rotations for 5 minutes to collect the peritoneal macrophages. The peritoneal macrophases thus collected were then suspended in GIT medium (Wako Pure Chemical Industries, Ltd.), and the suspension was spread on a 24-hole microplate. After the cultivation at 37° C. in 5% CO2 for 2 hours, the medium was replaced with a Dulbecoo Modified Eagle's MEM medium (Nissui Seiyaku Co., Ltd.). After the cultivation at 37° C. in 5% CO2 for additional 16 hours, the following substances were added in the following order:
(1) subject: dissolved in DMSO (Wako Pure Chemical Industries, Ltd.)
PC: phosphatidyl choline (a product of Funakoshi)
PS: phosphatidyl serine (ditto)
DCP: dicetyl phosphate (ditto)
CHOL.: cholesterol (Sigma).
After further cultivation at 37° C. in 5% CO2 for 16 hours, the lipid fraction was extracted with chloroform and methanol. The lipid fraction thus extracted was dissolved in isopropyl alcohol, and the formed cholesteryl ester (CE) was determined by an enzymatic coloring method. The cholesteryl ester-forming rate of each compound was calculated in terms of the ratio thereof to the control. The cytotoxicity was examined by microscopic observation of the shape of the cell.
The pharmacological effects of the compounds given in Table 2 were evaluated in the same manner as that of Example 3.

Turning to `CCC(=O)n1c(SCCCCCSc2nc3cc(C)c(C)cc3n2C(=O)CC)nc2cc(C)c(C)cc21` [II-15, 1,5-bis(5,6-dimethyl-1-propionyl-2-benzimidazoylthio) pentane], the Cytotoxicity entry in data set [1] (Table 2) is “none”.
Take `CCCn1c(SCCOCCSc2nc3ccccc3n2CCC)nc2ccccc21` [Compound (8)]: in data set [2] (Table 1, ratio to control), the activity at 5 µM amounted to 16%. In addition, the Cytotoxicity result in data set [1] (Table 1) is listed as “none”.
For the compound `CCCCCCCCn1c(SCCOCCSc2nc3ccccc3n2CCCCCCCC)nc2ccccc21` [Compound (9)], the activity at 5 µM in data set [2] (Table 1, ratio to control) was 28%. The Cytotoxicity result in data set [1] (Table 1) was “none”.
`Cn1c(SCCCCCSc2nc3cc(Cl)c(Cl)cc3n2C)nc2cc(Cl)c(Cl)cc21` [II-33, 1,5-bis(5,6-dichloro-1-methyl-2-benzimidazoylthio) pentane]: in data set [1] (Table 2), the Cytotoxicity entry is on record as “none”.
For the compound `Clc1ccc2[nH]c(SCCOCCSc3nc4cc(Cl)ccc4[nH]3)nc2c1` [Compound (14)], the activity at 5 µM in data set [2] (Table 1, ratio to control) stood at 18%. Besides, the Cytotoxicity result in data set [1] (Table 1) was “none”.
As to `O=[N+]([O-])c1ccc2[nH]c(SCCCCCSc3nc4cc([N+](=O)[O-])ccc4[nH]3)nc2c1` [IV-5, 1,5-bis(5-nitro-2-benzimidazoylthio)pentane], the Cytotoxicity entry in data set [1] (Table 2) is listed as “none”.
For the compound `c1ccc2[nH]c(SCCCCCCCCSc3nc4ccccc4[nH]3)nc2c1` [IV-2, 1,8-bis(2-benzimidazoylthio)octane], the activity at 5 µM in data set [2] (Table 2, ratio to control) amounted to 28%. Moreover, in data set [1] (Table 2), the Cytotoxicity entry is reported as “none”.
Turning to `Cc1cc2nc(SCCCCCSc3nc4cc(C)c(C)cc4[nH]3)[nH]c2cc1C` [Compound I-2, 1,5-bis(5,6-dimethyl-2-benzimidazoylthio)pentane], in data set [1] (Table 2), the Cytotoxicity result was “none”.
As for `CCCCC(CC)C(=O)n1c(SCCCCCSc2nc3ccccc3n2C(=O)C(CC)CCCC)nc2ccccc21` (stereo not drawn) [II-4, 1,5-bis(1-(2-ethylhexanoyl)-2-benzimidazoylthio) pentane], the Cytotoxicity entry in data set [1] (Table 2) is on record as “none”.
Same read-out and setting: as for `CCC(=O)n1c(SCCCCSc2nc3ccccc3n2C(=O)CC)nc2ccccc21` [II-9, 1,4-bis(1-propionyl-2-benzimidazoylthio)butane], the entry is “none”; as for `c1ccc2[nH]c(SCCCCSc3nc4ccccc4[nH]3)nc2c1` [IV-3, 1,4-bis(2-benzimidazoylthio)butane], “none”.
As for `c1ccc2[nH]c(SCc3ccc(CSc4nc5ccccc5[nH]4)cc3)nc2c1` [IV-13, 1,4-bis(2-benzimidazoylthiomethyl)benzene], in data set [1] (Table 2), the Cytotoxicity entry was “none”.
Same read-out and setting: with `c1cc(CSc2nc3ccccc3[nH]2)cc(CSc2nc3ccccc3[nH]2)c1` [IV-14, 1,3-bis(2-benzimidazoylthiomethyl)benzene] the entry was “none”.
With `CCCC(=O)n1c(SCCOCCSc2nc3ccccc3n2C(=O)CCC)nc2ccccc21` [Compound (3)], the activity at 5 µM in data set [2] (Table 1, ratio to control) was 15%. Further, the Cytotoxicity entry in data set [1] (Table 1) is on record as “none”.
On the same counts, the results for `Cc1cc2nc(SCCOCCSc3nc4cc(C)c(C)cc4[nH]3)[nH]c2cc1C` [Compound (13)] are 45% and “none”.
The matching figures for `c1ccc2[nH]c(SCCOCCOCCSc3nc4ccccc4[nH]3)nc2c1` [Compound (19)]: 11% and “none”.
For the compound `CCCCC(CC)Cn1c(SCCCCCSc2nc3ccccc3n2CC(CC)CCCC)nc2ccccc21` (stereo not drawn) [II-31, 1,5-bis(1-(2-ethylhexyl)-2-benzimidazoylthio)pentane], in data set [1] (Table 2), the Cytotoxicity entry is recorded as “none”.
Same read-out and setting: with `CCC(=O)n1c(SCCCCCCSc2nc3ccccc3n2C(=O)CC)nc2ccccc21` [II-10, 1,6-bis(1-propionyl-2-benzimidazoylthio)hexane] the entry was “none”.
On to `CCC(=O)n1c(SCCOCCSc2nc3cc(Cl)c(Cl)cc3n2C(=O)CC)nc2cc(Cl)c(Cl)cc21` [Compound (17)], for which, in data set [2] (Table 1, ratio to control), the activity at 5 µM is 27%. Also, in data set [1] (Table 1), the Cytotoxicity result is on record as “none”.
The matching figures for `c1ccc2[nH]c(SCCOCCSc3nc4ccccc4[nH]3)nc2c1` [Compound (1)]: 25% and “none”.
Consider `CCC(=O)n1c(SCCCCCCCCSc2nc3ccccc3n2C(=O)CC)nc2ccccc21` [II-11, 1,8-bis(1-propionyl-2-benzimidazoyl-thio)octane], for which the Cytotoxicity entry in data set [1] (Table 2) was “none”.
On to `c1ccc2[nH]c(SCCCCCCSc3nc4ccccc4[nH]3)nc2c1` [IV-1, 1,6-bis(2-benzimidazoylthio)hexane], for which the activity at 5 µM in data set [2] (Table 2, ratio to control) was determined as 28%. Besides, in data set [1] (Table 2), the Cytotoxicity result was “none”.
As to `CCC(=O)n1c(SCc2ccc(CSc3nc4ccccc4n3C(=O)CC)cc2)nc2ccccc21` [II-12, 1,4-bis(1-propionyl-2-benzimidazoylthiomethyl)benzene], the Cytotoxicity entry in data set [1] (Table 2) is on record as “none”.
Turning to `CC(=O)n1c(SCCCCCSc2nc3ccccc3n2C(C)=O)nc2ccccc21` [II-1, 1,5-bis(1-acetyl-2-benzimidazoylthio)pentane], the Cytotoxicity entry in data set [1] (Table 2) was “none”.
The same measure, in the same setting: as for `Clc1ccc2[nH]c(SCCCCCSc3nc4cc(Cl)ccc4[nH]3)nc2c1` [Compound I-3, 1,5-bis(5-chloro-2-benzimidazoylthio)pentane], the entry is “none”; as for `CCC(=O)Nc1ccc2[nH]c(SCCCCCSc3nc4cc(NC(=O)CC)ccc4[nH]3)nc2c1` [IV-8, 1,5-bis(5-propanamido-2-benzimidazoylthio)pentane], “none”.
In the case of `O=[N+]([O-])c1ccc2[nH]c(SCCOCCSc3nc4cc([N+](=O)[O-])ccc4[nH]3)nc2c1` [Compound (18)], the activity at 5 µM in data set [2] (Table 1, ratio to control) was determined as 10%. Besides, in data set [1] (Table 1), the Cytotoxicity entry is listed as “none”.
The matching figures for `CCCCCCCC(=O)n1c(SCCOCCSc2nc3ccccc3n2C(=O)CCCCCCC)nc2ccccc21` [Compound (6)]: 26% and “none”.
Take `CCCn1c(SCCCCCSc2nc3cc(Cl)c(Cl)cc3n2CCC)nc2cc(Cl)c(Cl)cc21` [II-34, 1,5-bis(5,6-dichloro-1-propyl-2-benzimidazoylthio) pentane]: the Cytotoxicity entry in data set [1] (Table 2) is “none”.
Take `Clc1cc2nc(SCCOCCSc3nc4cc(Cl)c(Cl)cc4[nH]3)[nH]c2cc1Cl` [Compound (16)]: the activity at 5 µM in data set [2] (Table 1, ratio to control) stood at 46%. The Cytotoxicity result in data set [1] (Table 1) was “none”.
On to `CCC(=O)n1c(SCCCCCSc2nc3ccccc3n2C(=O)CC)nc2ccccc21` [II-2, 1,5-bis(1-propionyl-2-benzimidazoylthio)pentane], for which the Cytotoxicity result in data set [1] (Table 2) is on record as “none”.
For the compound `CCCn1c(SCCCCCSc2nc3ccccc3n2CCC)nc2ccccc21` [II-29, 1,5-bis(1-propyl-2-benzimidazoylthio)pentane], the Cytotoxicity entry in data set [1] (Table 2) was “none”.
Same read-out and setting: as for `CCC(=O)n1c(SCCCCCSc2nc3ccc(Cl)cc3n2C(=O)CC)nc2cc(Cl)ccc21` [II-20, 1-(5-chloro-1-propionyl-2-benzimidazoylthio)-5-(6-chloro-1-propionyl-2-benzimidazoylthio)pentane], the entry is “none”; as for `O=C(c1ccc(Cl)cc1)n1c(SCCCCCSc2nc3ccccc3n2C(=O)c2ccc(Cl)cc2)nc2ccccc21` [II-6, 1,5-bis(1-(4-chlorobenzoyl)-2-benzimidazoylthio) pentane], “none”.
Regarding `Cc1ccc2[nH]c(SCCOCCSc3nc4cc(C)ccc4[nH]3)nc2c1` [Compound (11)], the activity at 5 µM in data set [2] (Table 1, ratio to control) is 38%. The Cytotoxicity entry in data set [1] (Table 1) is on record as “none”.
Take `Cn1c(SCCCCCCCCSc2nc3ccccc3n2C)nc2ccccc21` [II-35, 1,8-bis(1-methyl-2-benzimidazoylthio)octane]: the Cytotoxicity result in data set [1] (Table 2) was “none”.
Same read-out and setting: with `Cc1ccc2[nH]c(SCCCCCSc3nc4cc(C)ccc4[nH]3)nc2c1` [Compound I-1, 1,5-bis(5-methyl-2-benzimidazoylthio)pentane] the entry was “none”.
Same read-out and setting: as for `c1ccc(Cn2c(SCCCCCSc3nc4ccccc4n3Cc3ccccc3)nc3ccccc32)cc1` [II-32, 1.5-bis(1-benzyl-2-benzimidazoylthio)pentane], the entry is “none”; as for `COc1ccc2[nH]c(SCCCCCSc3nc4cc(OC)ccc4[nH]3)nc2c1` [IV-4, 1,5-bis(5-methoxyl-2-benzimidazoylthio)pentane], “none”.
The same measure, in the same setting: as for `CCC(=O)n1c(SCc2cccc(CSc3nc4ccccc4n3C(=O)CC)c2)nc2ccccc21` [II-13, 1,3-bis(1-propionyl-2-benzimidazoylthiomethyl)benzene], the entry is “none”; as for `CCCCCCCCn1c(SCCCCCSc2nc3ccccc3n2CCCCCCCC)nc2ccccc21` [II-30, 1,5-bis(l-octyl-2-benzimidazoylthio)pentane], “none”; as for `Clc1cc2nc(SCCCCCSc3nc4cc(Cl)c(Cl)cc4[nH]3)[nH]c2cc1Cl` [Compound I-4, 1,5-bis(5,6-dichloro-2-benzimidazoylthio)Pentane], “none”.
With `Cn1c(SCCCCCSc2nc3ccccc3n2C)nc2ccccc21` [II-28, 1,5-bis(1-methyl-2-benzimidazoylthio)pentane], the Cytotoxicity result in data set [1] (Table 2) is on record as “none”.
